Source: the supplement of paper PMC11061612

Assays:
Assay in all cases: combination Emax (second highest fraction inhibited in the dose matrix, 72 h); higher = more inhibition; extreme values may be limits of the assay
[1] = tested on: EBC-1 (Squamous Cell Lung Carcinoma)
In short: (§1)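 Cell lines in DMEM/F12 or RPMI with 10% FBS were plated in 1536-well plates, held 24 hours at 37°C, 5% CO2, then given two-drug dose matrices for 72 hours (DMSO typically 0.2%). Viability was read by CellTiter-Glo 2.0 luminescence and scaled as inhibition from 0 (vehicle wells) to 1 (blank wells). Combination Emax is the second-highest inhibition in the matrix; Bliss excess is observed combination effect minus expected EA + EB − EA·EB, EA and EB being single-agent effects.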

EW-13 (Ewing's Sarcoma) = tested on: EW-13 (Ewing's Sarcoma)
In short: as §1

GOTO (Neuroblastoma) = tested on: GOTO (Neuroblastoma)
In short: as §1

IMR-5 (Neuroblastoma) = tested on: IMR-5 (Neuroblastoma)
In short: as §1

[2] = tested on: KINGS-1 (Low Grade Glioma)
In short: as §1

[3] = tested on: KLE (Endometrial Carcinoma)
In short: as §1

[4] = tested on: KP-2 (Pancreatic Carcinoma)
In short: as §1

[5] = tested on: KU-19-19 (Bladder Carcinoma)
In short: as §1

[6] = tested on: KYSE-50 (Esophageal Squamous Cell Carcinoma)
In short: as §1

[7] = tested on: LC4-1 (B-Lymphoblastic Leukemia)
In short: as §1

[8] = tested on: LOU-NH91 (Squamous Cell Lung Carcinoma)
In short: as §1

[9] = tested on: MFE-319 (Endometrial Carcinoma)
In short: as §1

[10] = tested on: NCI-N87 (Gastric Carcinoma)
In short: as §1

NH-12 (Neuroblastoma) = tested on: NH-12 (Neuroblastoma)
In short: as §1

[11] = tested on: OVISE (Ovarian Carcinoma)
In short: as §1

RPMI-7951 (Melanoma) = tested on: RPMI-7951 (Melanoma)
In short: as §1

[12] = tested on: SCC-3 (B-Cell Non-Hodgkin's Lymphoma)
In short: as §1

[13] = tested on: SCC-9 (Oral Cavity Carcinoma)
In short: as §1

[14] = tested on: TGBC11TKB (Gastric Carcinoma)
In short: as §1

U-87-MG (Glioblastoma) = tested on: U-87-MG (Glioblastoma)
In short: as §1

Structure (SMILES) | combination Emax [1] | combination Emax (EW-13 (Ewing's Sarcoma)) | combination Emax (GOTO (Neuroblastoma)) | combination Emax (IMR-5 (Neuroblastoma)) | combination Emax [2] | combination Emax [3] | combination Emax [4] | combination Emax [5] | combination Emax [6] | combination Emax [7] | combination Emax [8] | combination Emax [9] | combination Emax [10] | combination Emax (NH-12 (Neuroblastoma)) | combination Emax [11] | combination Emax (RPMI-7951 (Melanoma)) | combination Emax [12] | combination Emax [13] | combination Emax [14] | combination Emax (U-87-MG (Glioblastoma))
Cc1c2c(nn1C)CSCc1cc(n(C)n1)CSc1cc(c3ccccc3c1)OCCCc1c(C(=O)O)n(C)c3c-2c(Cl)ccc13 [AZD5991] + Cn1cnc2c(F)c(Nc3ccc(Br)cc3Cl)c(C(=O)NOCCO)cc21 [Selumetinib] (first compound max 1 µM, 7x7, partner max 3 µM) | 0.827 | 0.338 | 0.714 | 0.983 | 0.354 | 0.287 | 0.749 | 0.885 | 0.292 | 1 | 0.581 | 0.604 | 0.426 | 0.568 | 0.291 | 0.934 | 0.639 | 0.654 | 0.683 | 0.372
CC(=O)c1c(C)c2cnc(Nc3ccc(N4CCNCC4)cn3)nc2n(C2CCCC2)c1=O [Palbociclib] + Cn1cnc2c(F)c(Nc3ccc(Br)cc3Cl)c(C(=O)NOCCO)cc21 [Selumetinib] (first compound max 10 µM, 7x7, partner max 10 µM) | 0.944 | 0.113 | 0.819 | 0.612 | 0.232 | 0.31 | 0.376 | 0.935 | 0.357 | 0.614 | 0.213 | 0.31 | 0.498 | 0.592 | 0.271 | 0.546 | 0.503 | 0.397 | 0.436 | 0.326
C[C@@H](c1ccc2nccn2c1)n1nnc2ncc(-c3cnn(C)c3)nc21 [Savolitinib] + CC1(C)CCC(CN2CCN(c3ccc(C(=O)NS(=O)(=O)c4ccc(NCC5CCOCC5)c([N+](=O)[O-])c4)c(Oc4cnc5[nH]ccc5c4)c3)CC2)=C(c2ccc(Cl)cc2)C1 [Venetoclax] (first compound max 1 µM, 7x7, partner max 1 µM) | 0.968 | 0.128 | 0.266 | 0.173 | 0.334 | 0.0864 | 0.148 | 0.132 | 0.196 | 1 | 0.135 | 0 | 0.22 | 0.406 | 0.0991 | 0.13 | 0.0971 | 0.116 | 0.0823 | 0.252
Cc1c2c(nn1C)CSCc1cc(n(C)n1)CSc1cc(c3ccccc3c1)OCCCc1c(C(=O)O)n(C)c3c-2c(Cl)ccc13 [AZD5991] + CN(C)CCCOc1ccc(-c2ccc3ncc4c(c3c2)n(C2CCOCC2)c(=O)n4C)cn1 [AZD0156] (first compound max 1 µM, 7x7, partner max 1 µM) | 0.251 | 0.401 | 0.757 | 0.985 | 0.278 | 0.262 | 0.18 | 0.253 | 0.292 | 0.962 | 0.47 | 0.78 | 0.45 | 0.226 | 0.283 | 0.945 | 0.396 | 0.269 | 0.476 | 0.253
CN(CCO)CC[C@H](CSc1ccccc1)Nc1ccc(S(=O)(=O)NC(=O)c2ccc(N3CCC([C@@H](O)c4ccccc4-c4ccc(Cl)cc4)CC3)cc2)cc1S(=O)(=O)C(F)(F)F [AZD4320] + Cn1cnc2c(F)c(Nc3ccc(Br)cc3Cl)c(C(=O)NOCCO)cc21 [Selumetinib] (first compound max 1 µM, 7x7, partner max 3 µM) | 0.991 | 0.933 | 0.85 | 0.994 | 0.481 | 0.423 | 0.962 | 0.937 | 0.239 | 1 | 0.662 | 0.522 | 0.604 | 0.998 | 0.786 | 0.526 | 0.546 | 0.67 | 0.469 | 0.278
CC(=O)Nc1cccc(-n2c(=O)n(C3CC3)c(=O)c3c(Nc4ccc(I)cc4F)n(C)c(=O)c(C)c32)c1 [Trametinib] + Cc1nc(-c2cn3c(n2)-c2ccc(-c4cnn(C(C)(C)C(N)=O)c4)cc2OCC3)n(C(C)C)n1 [Taselisib] (first compound max 1 µM, 7x7, partner max 10 µM) | 1 | 0.262 | 0.701 | 0.368 | 0.894 | 0.619 | 0.74 | 1 | 0.757 | 0.328 | 0.672 | 0.799 | 0.913 | 0.841 | 0.696 | 0.931 | 0.736 | 0.954 | 0.86 | 0.837
CC1(C)CCC(CN2CCN(c3ccc(C(=O)NS(=O)(=O)c4ccc(NCC5CCOCC5)c([N+](=O)[O-])c4)c(Oc4cnc5[nH]ccc5c4)c3)CC2)=C(c2ccc(Cl)cc2)C1 [Venetoclax] + Cn1cnc2c(F)c(Nc3ccc(Br)cc3Cl)c(C(=O)NOCCO)cc21 [Selumetinib] (first compound max 1 µM, 7x7, partner max 3 µM) | 0.768 | 0.213 | 0.236 | 0.221 | 0.262 | 0.276 | 0.455 | 0.748 | 0.133 | 1 | 0.246 | 0.145 | 0.242 | 0.777 | 0.206 | 0.424 | 0.205 | 0.386 | 0.313 | 0.223
CC(=O)c1c(C)c2cnc(Nc3ccc(N4CCNCC4)cn3)nc2n(C2CCCC2)c1=O [Palbociclib] + CC1(C)CCC(CN2CCN(c3ccc(C(=O)NS(=O)(=O)c4ccc(NCC5CCOCC5)c([N+](=O)[O-])c4)c(Oc4cnc5[nH]ccc5c4)c3)CC2)=C(c2ccc(Cl)cc2)C1 [Venetoclax] (first compound max 10 µM, 7x7, partner max 1 µM) | 0.223 | 0.0985 | 0.802 | 0.7 | 0.206 | 0.203 | 0.056 | 0.319 | 0.233 | 1 | 0.145 | 0.172 | 0.417 | 0.592 | 0.104 | 0.431 | 0.378 | 0.13 | 0.142 | 0.29
COc1nnc2ccc(N3CCC(c4ccc(OCCN5CCN(C)C(=O)[C@H]5C)cc4)CC3)nn12 [AZD5153] + Cn1cnc2c(F)c(Nc3ccc(Br)cc3Cl)c(C(=O)NOCCO)cc21 [Selumetinib] (first compound max 1 µM, 7x7, partner max 10 µM) | 1 | 0.315 | 0.822 | 0.906 | 0.323 | 0.631 | 0.54 | 1 | 0.697 | 0.975 | 0.63 | 0.579 | 0.567 | 0.729 | 0.626 | 0.677 | 0.93 | 0.75 | 0.683 | 0.698
NC1(C(=O)N[C@@H](CCO)c2ccc(Cl)cc2)CCN(c2ncnc3[nH]ccc23)CC1 [Capivasertib] + CC(C)n1c(=O)n(C)c2cnc3cc(F)c(-c4ccc(OCCCN5CCCCC5)nc4)cc3c21 [AZD1390] (first compound max 10 µM, 7x7, partner max 0.3 µM) | 0.322 | 0.28 | 0.433 | 0.161 | 0.374 | 0.43 | 0.102 | 0.266 | 0.14 | 0.465 | 0.456 | 0.368 | 0.674 | 0.363 | 0.387 | 0.662 | 0.216 | 0.26 | 0.13 | 0.578
NC1(C(=O)N[C@@H](CCO)c2ccc(Cl)cc2)CCN(c2ncnc3[nH]ccc23)CC1 [Capivasertib] + C[C@@H]1COCCN1C2=NC(=NC(=C2)C3(CC3)[S@](=N)(=O)C)C4=C5C=CNC5=NC=C4 [AZD6738] (first compound max 10 µM, 7x7, partner max 10 µM) | 0.601 | 0.67 | 0.948 | 0.99 | 0.425 | 0.59 | 0.17 | 0.69 | 0.676 | 0.949 | 0.569 | 0.787 | 0.781 | 0.832 | 0.694 | 0.892 | 0.938 | 0.412 | 0.778 | 0.714
Cc1c2c(nn1C)CSCc1cc(n(C)n1)CSc1cc(c3ccccc3c1)OCCCc1c(C(=O)O)n(C)c3c-2c(Cl)ccc13 [AZD5991] + CCN(CCO)CCCOc1ccc2c(Nc3cc(CC(=O)Nc4cccc(F)c4)[nH]n3)ncnc2c1 [AZD2811] (first compound max 1 µM, 7x7, partner max 1 µM) | 0.243 | 0.454 | 0.709 | 1 | 0.242 | 0.267 | 0.264 | 0.508 | 0.556 | 0.993 | 0.612 | 0.603 | 0.395 | 0.752 | 0.376 | 0.974 | 0.51 | 0.293 | 0.582 | 0.326
